Among the test systems are EKVX NSCLC; HOP-62 NSCLC; HT29 colon; K-562 leukemia; KM12 colon; RPMI-8226 leukemia; SK-OV-3 ovarian; SN12C renal; TK-10 renal; UACC-62 melanoma.
Assay in all cases: growth of human tumour cells (NCI), 48 h

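In this assay, cells in 96-well plates receive the compound at five concentrations for 48 hours. Endpoints are linearly interpolated between the surrounding concentrations. The concentration for 50% growth inhibition is given as GI50. TGI: concentration producing complete growth inhibition.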

Turning to `O=C1Cc2cc(CCn3ccnc3)c(Cl)cc2N1`, the GI50 in the assay with EKVX NSCLC was 0.613 µM; in the assay on HOP-62 NSCLC, 33.2 µM; in the assay with HT29 colon, above 100 µM; in the assay with K-562 leukemia, 8.26 µM; with KM12 colon it was 3.58 µM; with RPMI-8226 leukemia, 46.2 µM. Moreover, the GI50 was 18.1 µM with SK-OV-3 ovarian, 16.5 µM in the assay on SN12C renal, above 100 µM in the assay on TK-10 renal and 7.68 µM in the assay on UACC-62 melanoma. Also, the TGI was above 100 µM with EKVX NSCLC; above 100 µM in the assay with HOP-62 NSCLC; above 100 µM with HT29 colon; above 100 µM in the assay with K-562 leukemia; 98.4 µM in the assay on KM12 colon; above 100 µM with RPMI-8226 leukemia. The TGI in the assay with SK-OV-3 ovarian, in the assay with SN12C renal, in the assay with TK-10 renal and with UACC-62 melanoma was above 100 µM in each case.
Regarding `COc1cc2c(cc1OCCCCNC(=O)c1cc3ccccc3[nH]1)N=CC1CCCN1C2=O` (configuration not stated), the GI50 in the assay with EKVX NSCLC is 17.8 µM; with HOP-62 NSCLC it was 31.5 µM; in the assay with HT29 colon it was 32.6 µM; in the assay on K-562 leukemia it was 8.35 µM; with KM12 colon, 16.9 µM; in the assay with RPMI-8226 leukemia, 5.67 µM. The GI50 with SK-OV-3 ovarian is 29.9 µM; in the assay on SN12C renal, 18.9 µM; with TK-10 renal it was 14.7 µM; in the assay with UACC-62 melanoma, 15.8 µM. Further, the TGI in the assay with EKVX NSCLC is 42.2 µM; with HOP-62 NSCLC, above 100 µM; in the assay on HT29 colon, above 100 µM; with K-562 leukemia it was above 100 µM; in the assay with KM12 colon, 52.6 µM; in the assay with RPMI-8226 leukemia, 96.3 µM. In addition, the TGI in the assay on SK-OV-3 ovarian was determined as 83.6 µM; in the assay on SN12C renal, 44.8 µM; in the assay with TK-10 renal, 33.6 µM; in the assay with UACC-62 melanoma it was 40.7 µM.
As for `COC(=O)C(C(=O)C(=O)Nc1cccc(O)c1)c1nc2ccc(Cl)cc2[nH]c1=O` (configuration not stated), the TGI with EKVX NSCLC, with HOP-62 NSCLC, in the assay on HT29 colon, with K-562 leukemia, in the assay on KM12 colon and with RPMI-8226 leukemia was above 100 µM each time. Further, the TGI in the assay on SK-OV-3 ovarian, in the assay on SN12C renal, in the assay with TK-10 renal and in the assay on UACC-62 melanoma was above 100 µM in each case.
Regarding `COc1ccc2c(c1)C(=O)c1c-2n(CCCN=[N+]=[N-])c(=O)c2ccccc12`, the GI50 in the assay with EKVX NSCLC is 63 µM; in the assay on HOP-62 NSCLC, 34.2 µM; with HT29 colon, 41.4 µM; with K-562 leukemia it was 26 µM; with KM12 colon, above 100 µM; with RPMI-8226 leukemia, 51.3 µM. Besides, the GI50 was 20.3 µM in the assay with SK-OV-3 ovarian, above 100 µM with SN12C renal, 60 µM in the assay with TK-10 renal and 75.5 µM in the assay on UACC-62 melanoma. Moreover, the TGI in the assay on EKVX NSCLC, in the assay with HOP-62 NSCLC, in the assay on HT29 colon, with K-562 leukemia, with KM12 colon and with RPMI-8226 leukemia was above 100 µM in each case. Also, the TGI in the assay with SK-OV-3 ovarian is 69.5 µM; with SN12C renal, above 100 µM; in the assay with TK-10 renal it was above 100 µM; in the assay with UACC-62 melanoma, above 100 µM.
`CC1=C(C(=O)Nc2cccc(C(F)(F)F)c2)C(c2ccc(O)cc2)C(C(=O)Nc2cccc(C(F)(F)F)c2)=C(C)N1`: the TGI with EKVX NSCLC is 58.6 µM; in the assay on HOP-62 NSCLC it was 45.5 µM; in the assay with HT29 colon, 31.7 µM; in the assay on K-562 leukemia, 44.7 µM; in the assay with KM12 colon, 33.2 µM; in the assay with RPMI-8226 leukemia, 41.2 µM. Also, the figures for the TGI with SK-OV-3 ovarian and in the assay with TK-10 renal were 83.4 µM and 66.6 µM, respectively.
For `C=CCN1C(=O)/C(=c2\sc3n(c2=O)C2C(NN=3)N(CC)C(=O)N2CC)c2ccccc21` (configuration not stated), the GI50 with EKVX NSCLC is 1.39 µM; in the assay on HOP-62 NSCLC, 1.02 µM; with HT29 colon, 0.39 µM; with K-562 leukemia, 0.414 µM; with KM12 colon it was 0.439 µM; with RPMI-8226 leukemia, 0.657 µM. Moreover, the GI50 was 1.45 µM in the assay on SK-OV-3 ovarian, 0.7 µM with SN12C renal, 1.85 µM in the assay with TK-10 renal and 0.612 µM in the assay with UACC-62 melanoma. Also, the TGI in the assay on EKVX NSCLC was above 100 µM; in the assay with HOP-62 NSCLC it was above 53.5 µM; in the assay with K-562 leukemia it was above 100 µM; with KM12 colon it was above 100 µM; in the assay with RPMI-8226 leukemia, above 100 µM; with SK-OV-3 ovarian it was above 23.9 µM. Further, the values for the TGI in the assay on SN12C renal, in the assay on TK-10 renal and in the assay on UACC-62 melanoma were above 100 µM, above 20.5 µM and above 62.1 µM, respectively.
`CCOc1ccc(Cc2nccc3cc(OCC)c(OCC)cc23)cc1OCC`: the GI50 is 3.64 µM with EKVX NSCLC; 3.01 µM with HOP-62 NSCLC; 0.863 µM in the assay on HT29 colon; 3.54 µM in the assay with K-562 leukemia; 4.85 µM in the assay with KM12 colon; 2.01 µM in the assay with RPMI-8226 leukemia. For the same molecule, the GI50 in the assay with SK-OV-3 ovarian is 16.3 µM; in the assay with SN12C renal, 4.08 µM; with TK-10 renal, 11 µM; with UACC-62 melanoma, 2.72 µM. Also, the TGI in the assay on EKVX NSCLC was determined as 27.1 µM; with HOP-62 NSCLC, 20.9 µM; in the assay on HT29 colon, 12.6 µM; in the assay with K-562 leukemia, 49.9 µM; in the assay with KM12 colon, 24.5 µM; in the assay on RPMI-8226 leukemia, 22.4 µM. Moreover, the TGI was found to be 58.2 µM with SK-OV-3 ovarian, 22.3 µM with SN12C renal, 32.5 µM in the assay with TK-10 renal and 16.5 µM in the assay on UACC-62 melanoma.
On to `COC1=C(OC)C(=O)C(/C=C(\C)C(=O)O)=C(C)C1=O`, for which the GI50 with EKVX NSCLC, in the assay on HOP-62 NSCLC, with HT29 colon, with K-562 leukemia, in the assay on KM12 colon and in the assay on RPMI-8226 leukemia was above 100 µM each time. Also, the GI50 in the assay with SK-OV-3 ovarian, with SN12C renal, in the assay with TK-10 renal and in the assay on UACC-62 melanoma was above 100 µM in each case. Also, the TGI in the assay with EKVX NSCLC, in the assay on HOP-62 NSCLC, with HT29 colon, with K-562 leukemia, in the assay on KM12 colon and in the assay with RPMI-8226 leukemia was above 100 µM throughout. Also, the TGI with SK-OV-3 ovarian, with SN12C renal, in the assay on TK-10 renal and in the assay on UACC-62 melanoma was above 100 µM each time.
